Data on 29 compounds can be found in patent US7183288B2, “Amide derivatives as glycogen synthase kinase 3-β inhibitors” (priority 2001, dated 2007).

Usually IC50 stands for the concentration at which inhibition is half-maximal. The melting point is the temperature, or range, at which the solid turns liquid.

The target in one data set is GSK3β (Homo sapiens, UniProt P49841). Put plainly: GSK3beta assay (SPA, biotinylated phosphorylated CREB peptide, ATP-P33). Type of data set: biochemical. Conditions: -log IC50 (M); 19 nM GSK3β, 5 μM biotinylated phosphorylated CREB peptide, 1 μM ATP, 25° C., one hour. The protocol: GSK3beta assays were performed at 25° C. in a 100 μl reaction volume of 25 mM Tris (pH 7.4) containing 10 mM MgCl2, 1 mM DTT, 0.1 mg/ml BSA, 5% glycerol and containing 19 nM GSK3β, 5 μM biotinylated phosphorylated CREB peptide, 1 μM ATP, 2 nM ATP-P^33 and a suitable amount of a test compound of formula (I) or (I′). After one hour, the reaction was terminated by adding 70 μl of Stop mix (1 mM ATP, 18 mg/ml streptavidin coated PVT SPA bead pH 11.0). The beads to which the phosphorylated CREB peptide is attached were allowed to settle for 30 minutes and the radioactivity of the beads was counted in a microtiterplate scintillation counter and compared with the results obtained in a control experiment (without the presence of a test compound) in order to determine the percentage of GSK3β inhibition. The IC50 value, i.e. the concentration (M) of the test compound at which 50% of GSK3β is inhibited, was calculated from the dose response curve obtained by performing the above-described GSK3β assay in the presence of different amounts of the test compound.
Sequence of GSK3β (P49841 whole entry, species assumed): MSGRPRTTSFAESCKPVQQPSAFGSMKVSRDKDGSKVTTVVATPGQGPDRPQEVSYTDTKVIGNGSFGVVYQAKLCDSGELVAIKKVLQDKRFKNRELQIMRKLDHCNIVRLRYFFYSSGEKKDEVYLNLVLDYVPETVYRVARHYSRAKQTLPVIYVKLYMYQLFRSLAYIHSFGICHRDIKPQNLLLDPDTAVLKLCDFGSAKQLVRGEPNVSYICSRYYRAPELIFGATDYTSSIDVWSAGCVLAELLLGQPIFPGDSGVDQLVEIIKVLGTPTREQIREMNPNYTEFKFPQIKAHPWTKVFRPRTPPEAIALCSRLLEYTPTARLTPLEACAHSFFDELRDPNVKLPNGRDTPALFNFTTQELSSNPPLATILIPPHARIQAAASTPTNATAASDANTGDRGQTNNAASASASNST
In the case of `N#Cc1ccc(Nc2nccc(C(N)=O)n2)cc1OCc1ccccc1` [Compound 2, 2-[[4-cyano-3-(phenylmethoxy)phenyl]amino]-4-pyrimidinecarboxamide], the IC50 was 5.01e-08 M.
Same read-out and setting: the result for `CNC(=O)c1ccnc(Nc2ccc(C#N)c(OCc3ccccc3)c2)n1` [Compound 3] reads 5.5e-08 M.
The compound `CN(C)S(=O)(=O)Nc1cccc(COc2cc(Nc3nccc(C(N)=O)n3)ccc2C#N)c1` [Compound 8] gave an IC50 of 2.09e-08 M.
`N#Cc1ccc(Nc2nccc(C(N)=O)n2)cc1OCc1cc(C(F)(F)F)cc(C(F)(F)F)c1` [Compound 9] showed an IC50 of 3.8e-07 M.
`Cc1cc(C)cc(COc2cc(Nc3nccc(C(N)=O)n3)ccc2C#N)c1` [Compound 10] had a half-inhibitory concentration (IC50) of 1.1e-07 M.
The compound `N#Cc1ccc(Nc2nccc(C(N)=O)n2)cc1OCCN1CCOCC1` [Compound 11] had a half-inhibitory concentration (IC50) of 2.63e-07 M.
In turn, `CN(C)CCOc1cc(Nc2nccc(C(N)=O)n2)ccc1C#N` [Compound 12] showed a concentration for half-maximal inhibition (IC50) of 8.91e-07 M.
On to `COc1ccc(COc2cc(Nc3nccc(C(N)=O)n3)ccc2C#N)cc1` [Compound 13, 2-[[4-cyano-3-[(4-methoxyphenyl)methoxy]phenyl]amino]-4-pyrimidinecarboxamide], for which 5.25e-08 M corresponded to half-maximal inhibition (IC50).
Take `N#Cc1ccc(Nc2nccc(C(N)=O)n2)cc1OCCC1COc2ccccc2O1` (centres unmarked) [Compound 14]: the half-maximal inhibitory concentration (IC50) was 1.38e-07 M.
`N#Cc1ccc(Nc2nccc(C(N)=O)n2)cc1O/C=C/c1ccccc1` [Compound 15] gave an IC50 of 1.32e-07 M.
With `CC(COc1cc(Nc2nccc(C(N)=O)n2)ccc1C#N)Oc1ccc(F)cc1` (centres unmarked) [Compound 16, 2-[[4-cyano-3-[2-(4-fluorophenoxy)propoxy]phenyl]amino]-4-pyrimidinecarboxamide], half-maximal inhibition (IC50) required 3.89e-08 M.
On the same count and under the same terms, with `N#Cc1ccc(Nc2nccc(C(N)=O)n2)cc1OCCOc1ccc(F)cc1F` [Compound 17] the figure was 2.45e-07 M; with `N#Cc1ccc(Nc2nccc(C(N)=O)n2)cc1OCCCc1ccccc1` [Compound 18], 5.75e-08 M.
Compound `N#Cc1ccc(Nc2nccc(C(N)=O)n2)cc1OCc1nc2ccccc2s1` [Compound 19] gave an IC50 of 4.57e-07 M.
Compound `N#Cc1ccc(Nc2nccc(C(N)=O)n2)cc1OCc1ccc2ccccc2n1` [Compound 21] showed an IC50 of 2.51e-08 M.
`N#Cc1ccc(Nc2nccc(C(N)=O)n2)cc1OCC1CC(c2cccnc2)=NO1` (centres unmarked) [Compound 22]: inhibition was half-maximal at 2.34e-07 M (IC50).
In the case of `N#Cc1ccc(Nc2nccc(C(N)=O)n2)cc1OCc1cccc2ccccc12` [Compound 23], the IC50 is 8.13e-08 M.
Compound `CCn1ccnc1COc1cc(Nc2nccc(C(N)=O)n2)ccc1C#N` [Compound 24] gave an IC50 of 4.79e-08 M.
As for `NC(=O)c1ccnc(Nc2cccc(OCc3ccccc3)c2)n1` [Compound 25], the half-inhibitory concentration (IC50) was 9.12e-08 M.
`CCc1noc(COc2cc(Nc3nccc(C(N)=O)n3)ccc2C#N)n1` [Compound 26] had a concentration for half-maximal inhibition (IC50) of 4.37e-07 M.
In turn, `N#Cc1ccc(Nc2nccc(C(N)=O)n2)cc1` [Compound 29] had an IC50 of 1.48e-07 M.
Take `COc1ccccc1COc1cc(Nc2nccc(C(N)=O)n2)ccc1C#N` [Compound 30, 2-[[4-cyano-3-[(2-methoxyphenyl)methoxy]phenyl]amino]-4-pyrimidinecarboxamide]: the half-maximal inhibitory concentration (IC50) is 4.68e-08 M.
Turning to `N#Cc1ccc(COc2cc(Nc3nccc(C(N)=O)n3)ccc2C#N)cc1` [Compound 31], the midpoint of inhibition, the IC50, lay at 9.55e-08 M.
As for `Cc1cccc(COc2cc(Nc3nccc(C(N)=O)n3)ccc2C#N)c1` [Compound 32], the IC50 is 6.46e-08 M.
Regarding `Cc1ccccc1COc1cc(Nc2nccc(C(N)=O)n2)ccc1C#N` [Compound 34], it took 1.78e-07 M to reach half-maximal inhibition (IC50).
As to `Cc1ccc(COc2cc(Nc3nccc(C(N)=O)n3)ccc2C#N)cc1` [Compound 35], the 50% inhibitory concentration (IC50) was 1.55e-07 M.
For the compound `N#Cc1ccc(Nc2nccc(C(N)=O)n2)cc1OCc1cccc(C(F)(F)F)c1` [Compound 36], the IC50 is 4.07e-07 M.
As to `N#Cc1ccc(Nc2nccc(C(N)=O)n2)cc1OCc1ccc2ccccc2c1` [Compound 38, 2-[[4-cyano-3-(2-naphthalenylmethoxy)phenyl]amino]-4-pyrimidinecarboxamide], the IC50 is 5.5e-08 M.

Test system in the next data set: not given
Assay: not given
Conditions: not given
Regarding `N#Cc1ccc(Nc2ncccc2C(N)=O)cc1OCc1ccccc1` [Compound 1, 2-(3-benzyloxy-4-cyano-phenylamino)-nicotinamide], the melting point is 232 °C.
